Test results from patent US8952024B2, “Herbicidal pyrimidone derivatives” (E I du Pont de Nemours and Company, priority 2009, dated 2015).

How the values were obtained:
Type in all cases: in vivo
[1] = tested on: cocklebur (Xanthium strumarium); experiment: Test B pre-/postemergence plant response
Procedure, shortened: (§1)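 Each species received compound formulated in non-phytotoxic solvent with surfactant, either at planting into a loam and sand blend or as a foliar spray once plants reached 2 to 18 cm in peat-based medium. Plants stayed in the greenhouse 13 to 15 days before visual evaluation against controls, scored 0 (no effect) to 100 (complete control).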

kochia (Kochia scoparia) = experiment: Test B pre-/postemergence plant response; settings: for Plant response rating, Kochia: Postemergence, scale 0 to 100 (0 no effect, 100 complete control)
Procedure, shortened: as §1

[2] = tested on: blackgrass (Alopecurus myosuroides); experiment: Test B pre-/postemergence plant response
Procedure, shortened: as §1

[3] = tested on: wheat (Triticum aestivum); experiment: Test B pre-/postemergence plant response
Procedure, shortened: as §1

[4] = tested on: bermudagrass (Cynodon dactylon); experiment: Test B pre-/postemergence plant response
Procedure, shortened: as §1

wild oat (Avena fatua) = experiment: Test B pre-/postemergence plant response
Procedure, shortened: as §1

[5] = tested on: giant foxtail (Setaria faberii); experiment: Test B pre-/postemergence plant response
Procedure, shortened: as §1

[6] = tested on: downy bromegrass (Bromus tectorum); experiment: Test B pre-/postemergence plant response
Procedure, shortened: as §1

[7] = tested on: velvetleaf (Abutilon theophrasti); experiment: Test B pre-/postemergence plant response; settings: for Plant response rating, Velvetleaf: Postemergence, scale 0 to 100 (0 no effect, 100 complete control)
Procedure, shortened: as §1

[8] = tested on: yellow nutsedge (Cyperus esculentus); experiment: Test B pre-/postemergence plant response; settings: for Plant response rating, Nutsedge, Yellow: Postemergence, scale 0 to 100 (0 no effect, 100 complete control)
Procedure, shortened: as §1

[9] = tested on: green foxtail (Setaria viridis); experiment: Test B pre-/postemergence plant response
Procedure, shortened: as §1

[10] = tested on: morningglory (Ipomoea coccinea); experiment: Test B pre-/postemergence plant response
Procedure, shortened: as §1

soybean (Glycine max) = experiment: Test B pre-/postemergence plant response; settings: for Plant response rating, Soybean: Postemergence, scale 0 to 100 (0 no effect, 100 complete control)
Procedure, shortened: as §1

[11] = tested on: johnsongrass (Sorghum halepense); experiment: Test B pre-/postemergence plant response
Procedure, shortened: as §1

[12] = tested on: ragweed (common ragweed, Ambrosia elatior); experiment: Test B pre-/postemergence plant response; settings: for Plant response rating, Ragweed: Postemergence, scale 0 to 100 (0 no effect, 100 complete control)
Procedure, shortened: as §1

[13] = tested on: canarygrass (Phalaris minor); experiment: Test B postemergence plant response
Procedure, shortened: (§2)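 Visual ratings from 0 (no effect) to 100 (complete control), made against controls 13–15 days after treatment, kept in a greenhouse. Compounds were applied postemergence to potted plants at the 1- to 4-leaf stage (2–18 cm).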

[14] = tested on: windgrass (Apera spica-venti); experiment: Test B postemergence plant response
Procedure, shortened: as §2

[15] = tested on: chickweed (Stellaria media); experiment: Test B postemergence plant response
Procedure, shortened: as §2

[16] = 31 g ai/ha, postemergence, scale 0 to 100, 0 is no effect, 100 is complete control
[17] = 62 g ai/ha, postemergence, 0 is no effect, 100 is complete control, 13 to 15 days
[18] = Postemergence, 125 g ai/ha, scale 0 to 100 (0 no effect, 100 complete control)
[19] = Postemergence, 250 g ai/ha, scale 0 to 100 (0 no effect, 100 complete control)

CCCn1c(-c2cccc(OC)c2)ncc(C(=O)C2=C(O)CCCC2=O)c1=O [Compound 100]
30: Plant response rating, Oat, Wild (wild oat (Avena fatua); [18]) | Plant response rating, Oat, Wild (wild oat (Avena fatua); [19])
25: Plant response rating, Johnsongrass [11, 19]
95: Plant response rating, Cocklebur [1, 18] | Kochia plant response rating (0 to 100 scale) (kochia (Kochia scoparia); [17]) | Plant response rating, Chickweed [15, 18]
85: Cocklebur plant response rating (0 to 100 scale) [1, 17] | Plant response rating, Bermudagrass [4, 19] | Plant response rating, Foxtail, Giant [5, 19] | Plant response rating, Velvetleaf ([7]; 250 g ai/ha) | Plant response rating, Foxtail, Green [9, 19]
70: Plant response rating, Bermudagrass [4, 16] | Bermudagrass plant response rating (0 to 100 scale) [4, 17] | Plant response rating, Foxtail, Giant [5, 16] | Velvetleaf plant response rating (0 to 100 scale) [7, 17] | Plant response rating, Velvetleaf ([7]; 125 g ai/ha) | Foxtail, Green plant response rating (0 to 100 scale) [9, 17] | Ragweed plant response rating (0 to 100 scale) [12, 17]
10: Plant response rating, Blackgrass [2, 18] | Oat, Wild plant response rating (0 to 100 scale) (wild oat (Avena fatua); [17]) | Bromegrass, Downy plant response rating (0 to 100 scale) [6, 17] | Plant response rating, Johnsongrass [11, 18] | Plant response rating, Canarygrass [13, 19]
20: Plant response rating, Foxtail, Green [9, 16]
45: Plant response rating, Windgrass [14, 18]
60: Plant response rating, Morningglory [10, 16]
100: Plant response rating, Kochia (kochia (Kochia scoparia); 250 g ai/ha) | Morningglory plant response rating (0 to 100 scale) [10, 17] | Plant response rating, Morningglory [10, 18] | Plant response rating, Morningglory [10, 19] | Plant response rating, Soybean (soybean (Glycine max); 125 g ai/ha) | Plant response rating, Soybean (soybean (Glycine max); 250 g ai/ha) | Plant response rating, Chickweed [15, 19]
5: Blackgrass plant response rating (0 to 100 scale) [2, 17] | Wheat plant response rating (0 to 100 scale) [3, 17] | Plant response rating, Bromegrass, Downy [6, 16] | Nutsedge, Yellow plant response rating (0 to 100 scale) [8, 17] | Johnsongrass plant response rating (0 to 100 scale) [11, 17] | Canarygrass plant response rating (0 to 100 scale) [13, 17] | Plant response rating, Canarygrass [13, 18]
35: Plant response rating, Bromegrass, Downy [6, 19]
80: Plant response rating, Foxtail, Giant [5, 18] | Plant response rating, Foxtail, Green [9, 18] | Plant response rating, Ragweed ([12]; 250 g ai/ha)
40: Plant response rating, Cocklebur [1, 16] | Plant response rating, Blackgrass [2, 19] | Plant response rating, Nutsedge, Yellow ([8]; 250 g ai/ha) | Windgrass plant response rating (0 to 100 scale) [14, 17]
15: Plant response rating, Wheat [3, 18] | Plant response rating, Bromegrass, Downy [6, 18] | Plant response rating, Nutsedge, Yellow ([8]; 125 g ai/ha)
98: Plant response rating, Cocklebur [1, 19] | Plant response rating, Kochia (kochia (Kochia scoparia); 125 g ai/ha) | Soybean plant response rating (0 to 100 scale) (soybean (Glycine max); [17])
0: Plant response rating, Blackgrass [2, 16] | Plant response rating, Oat, Wild (wild oat (Avena fatua); [16]) | Plant response rating, Johnsongrass [11, 16] | Plant response rating, Canarygrass [13, 16]
75: Plant response rating, Bermudagrass [4, 18] | Foxtail, Giant plant response rating (0 to 100 scale) [5, 17] | Plant response rating, Ragweed ([12]; 125 g ai/ha) | Plant response rating, Chickweed [15, 16] | Chickweed plant response rating (0 to 100 scale) [15, 17]
